Results taken from patent US10961253B2, “Positive allosteric modulators of the muscarinic acetylcholine receptor M4” (Vanderbilt University, priority 2016, dated 2021).

Tests used:
[1] = target: T1, Human M4 (Homo sapiens, UniProt P08173); assay: mAChR M4 cell-based functional assay (calcium flux, potentiation of EC20 acetylcholine response); set-up: Emax: dose or concentration left out as unconfirmed; settings: for Emax: CHO-K1
T1 sequence (P08173 1-479): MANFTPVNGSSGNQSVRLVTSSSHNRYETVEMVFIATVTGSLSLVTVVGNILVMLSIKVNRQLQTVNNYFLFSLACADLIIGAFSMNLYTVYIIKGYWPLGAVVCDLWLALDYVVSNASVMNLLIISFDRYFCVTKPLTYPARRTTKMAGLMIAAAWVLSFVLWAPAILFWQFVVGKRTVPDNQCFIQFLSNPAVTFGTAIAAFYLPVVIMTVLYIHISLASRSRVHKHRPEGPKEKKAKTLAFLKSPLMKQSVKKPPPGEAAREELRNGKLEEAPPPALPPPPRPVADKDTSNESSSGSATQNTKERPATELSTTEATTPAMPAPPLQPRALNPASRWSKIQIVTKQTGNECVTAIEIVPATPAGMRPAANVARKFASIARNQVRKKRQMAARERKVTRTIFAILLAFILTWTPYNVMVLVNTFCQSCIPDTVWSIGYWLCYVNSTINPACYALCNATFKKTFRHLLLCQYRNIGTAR

[2] = human, in vivo; cited from earlier work
[3] = similar profiles to known antipsychotic drugs, without causing catalepsy; cited from earlier work
[4] = Alzheimer's disease patients; delusions, suspiciousness, vocal outbursts, hallucinations; cited from earlier work

| EC50 [1] | Emax [1] | Compound | elevated liver transaminases (hepatotoxicity), share of patients [2] | activity in animal models [3] | effect on psychotic behavioral symptoms [4] |
| --- | --- | --- | --- | --- | --- |
| 150 nM | 98.8% | Cc1cc(C)c2c(n1)sc1c(C3CCOCC3)ncnc12 [Compound 1, 7,9-Dimethyl-4-(tetrahydro-2H-pyran-4-yl)pyrido[3′,2′:4,5]thieno[3,2-d]pyrimidine] | – | – | – |
| > 10000 nM | 55.3% | C/C=C/c1ncnc2c1sc1nc(C)cc(C)c12 [Compound 2, (E)-7,9-dimethyl-4-(prop-1-en-1-yl)pyrido[3′,2′:4,5]thieno[3,2-d]pyrimidine; 2,2,2-trifluoroacetic acid] | – | – | – |
| 2800 nM | 58.1% | Cc1cc(C)c2c(n1)sc1c(C)ncnc12 [Compound 4, 4,7,9-trimethylpyrido[3′,2′:4,5]thieno[3,2-d]pyrimidine] | – | – | – |
| 3900 nM | 61.5% | Cc1cc(C)c2c(n1)sc1c(C3CC3)ncnc12 [Compound 5, 4-cyclopropyl-7,9-dimethylpyrido[3′,2′:4,5]thieno[3,2-d]pyrimidine] | – | – | – |
| 2900 nM | 59.1% | CCc1ncnc2c1sc1nc(C)cc(C)c12 [Compound 6, 4-ethyl-7,9-dimethylpyrido[3′,2′:4,5]thieno[3,2-d]pyrimidine] | – | – | – |
| 480 nM | 65.6% | Cc1cc(C)c2c(n1)sc1c(C3CCN(C=O)CC3)ncnc12 [Compound 7, 4-(7,9-dimethylpyrido[3′,2′:4,5]thieno[3,2-d]pyrimidin-4-yl)piperidine-1-carbaldehyde] | – | – | – |
| > 10000 nM | 70.9% | Cc1cc(C)c2c(n1)sc1c(C3CCCC3)ncnc12 [Compound 8, 4-cyclopentyl-7,9-dimethylpyrido[3′,2′:4,5]thieno[3,2-d]pyrimidine] | – | – | – |
| 6800 nM | 70.8% | Cc1cc(C)c2c(n1)sc1c(C3CCCCC3)ncnc12 [Compound 9, 4-cyclohexyl-7,9-dimethylpyrido[3′,2′:4,5]thieno[3,2-d]pyrimidine] | – | – | – |
| 6100 nM | 98.8% | Cc1cc(C)c2c(n1)sc1c(C3CCNCC3)ncnc12 [Compound 10, 7,9-dimethyl-4-(piperidin-4-yl)pyrido[3′,2′:4,5]thieno[3,2-d]pyrimidine] | – | – | – |
| 620 nM | 43.5% | Cc1cc(C)c2c(n1)sc1c(C3CCN(C(=O)C4CC4)CC3)ncnc12 [Compound 11, cyclopropyl(4-(7,9-dimethylpyrido[3′,2′:4,5]thieno[3,2-d]pyrimidin-4-yl)piperidin-1-yl)methanone] | – | – | – |
| 820 nM | 62% | Cc1cc(C)c2c(n1)sc1c(C3CCN(C(=O)C4(F)CC4)CC3)ncnc12 [Compound 12, (4-(7,9-dimethylpyrido[3′,2′:4,5]thieno[3,2-d]pyrimidin-4-yl)piperidin-1-yl)(1-fluorocyclopropyl)methanone] | – | – | – |
| 230 nM | 63% | Cc1cc(C)c2c(n1)sc1c(C3CCN(C(=O)C4(C)CC4)CC3)ncnc12 [Compound 13, (4-(7,9-dimethylpyrido[3′,2′:4,5]thieno[3,2-d]pyrimidin-4-yl)piperidin-1-yl)(1-methylcyclopropyl)methanone] | – | – | – |
| 520 nM | 72.3% | Cc1cc(C)c2c(n1)sc1c(C3CCN(C(=O)C4CCC4)CC3)ncnc12 [Compound 14, cyclobutyl(4-(7,9-dimethylpyrido[3′,2′:4,5]thieno[3,2-d]pyrimidin-4-yl)piperidin-1-yl)methanone] | – | – | – |
| 1000 nM | 44% | Cc1cc(C)c2c(n1)sc1c(C3CCN(C(=O)C4CCCO4)CC3)ncnc12 (stereo not shown) [Compound 15, (4-(7,9-dimethylpyrido[3′,2′:4,5]thieno[3,2-d]pyrimidin-4-yl)piperidin-1-yl)(tetrahydrofuran-2-yl)methanone] | – | – | – |
| 140 nM | 73.5% | Cc1nnc2sc3c(C4CC4)ncnc3c2c1C [Compound 17, 8-cyclopropyl-3,4-dimethylpyrimido[4′,5′:4,5]thieno[2,3-c]pyridazine] | – | – | – |
| – | 74.6% | Cc1nnc2sc3c(C4CCOCC4)ncnc3c2c1C [Compound 18, 3,4-dimethyl-8-(tetrahydro-2H-pyran-4-yl)pyrimido[4′,5′:4,5]thieno[2,3-c]pyridazine] | – | – | – |
| 490 nM | 39.1% | Cc1nnc2sc3c(C4CCN(C(=O)C5(F)CC5)CC4)ncnc3c2c1C [Compound 20, (4-(3,4-dimethylpyrimido[4′,5′:4,5]thieno[2,3-c]pyridazin-8-yl)piperidin-1-yl)(1-fluorocyclopropyl)methanone] | – | – | – |
| 1600 nM | 41.8% | Cc1cc(C)c2c(n1)sc1c(C3CCN(C4COC4)CC3)ncnc12 [Compound 21, 7,9-dimethyl-4-(1-(oxetan-3-yl)piperidin-4-yl)pyrido[3′,2′:4,5]thieno[3,2-d]pyrimidine] | – | – | – |
| – | 72.1% | Cc1nnc2sc3c(C4CC(F)(F)C4)ncnc3c2c1C [Compound 22, 8-(3,3-difluorocyclobutyl)-3,4-dimethylpyrimido[4′,5′:4,5]thieno[2,3-c]pyridazine] | – | – | – |
| 510 nM | 67% | Cc1nnc2sc3c(C4CCCN(C=O)C4)ncnc3c2c1C (stereo not shown) [Compound 23, 3-(3,4-dimethylpyrimido[4′,5′:4,5]thieno[2,3-c]pyridazin-8-yl)piperidine-1-carbaldehyde] | – | – | – |
| 280 nM | 59.8% | Cc1nnc2sc3c(CCC4CCCCO4)ncnc3c2c1C (stereo not shown) [Compound 24, 3,4-dimethyl-8-(2-(tetrahydro-2H-pyran-2-yl)ethyl)pyrimido[4′,5′:4,5]thieno[2,3-c]pyridazine] | – | – | – |
| 45 nM | 96.3% | Cc1nnc2sc3c(C4CCC(F)(F)CC4)ncnc3c2c1C [Compound 25, 8-(4,4-difluorocyclohexyl)-3,4-dimethylpyrimido[4′,5′:4,5]thieno[2,3-c]pyridazine] | – | – | – |
| 1900 nM | 58.2% | Cc1nnc2sc3c(C4CCN(C(=O)C5CCCO5)CC4)ncnc3c2c1C (stereo not shown) [Compound 27, (4-(3,4-dimethylpyrimido[4′,5′:4,5]thieno[2,3-c]pyridazin-8-yl)piperidin-1-yl)(tetrahydrofuran-2-yl)methanone] | – | – | – |
| – | 75.6% | Cc1nnc2sc3c(CC(C)(C)C)ncnc3c2c1C [Compound 28, 3,4-dimethyl-8-neopentylpyrimido[4′,5′:4,5]thieno[2,3-c]pyridazine] | – | – | – |
| 540 nM | 93.4% | CCCCc1ncnc2c1sc1nnc(C)c(C)c12 [Compound 29, 8-butyl-3,4-dimethylpyrimido[4′,5′:4,5]thieno[2,3-c]pyridazine] | – | – | – |
| – | – | Nc1c2c(nc3ccccc13)CCCC2 [tacrine] | about 30% | – | – |
| – | – | CCCCCCOc1nsnc1C1=CCCN(C)C1 [xanomeline] | – | active in animal models | reduce psychotic behavioral symptoms |

| Compound | EC50 [1] | Emax [1] | elevated liver transaminases (hepatotoxicity), share of patients [2] | activity in animal models [3] | effect on psychotic behavioral symptoms [4] |
| --- | --- | --- | --- | --- | --- |
| Cc1cc(C)c2c(n1)sc1c(-c3nccs3)ncnc12 [Compound 3, 7,9-dimethyl-4-(thiazol-2-yl)pyrido[3′,2′:4,5]thieno[3,2-d]pyrimidine; 2,2,2-trifluoroacetic acid] | 3400 nM | 62.2% | – | – | – |
| Cc1nnc2sc3c(C4CCCCC4)ncnc3c2c1C [Compound 16, 8-cyclohexyl-3,4-dimethylpyrimido[4′,5′:4,5]thieno[2,3-c]pyridazine] | 52 nM | 72.6% | – | – | – |
| Cc1nnc2sc3c(C4CCNCC4)ncnc3c2c1C [Compound 19, 3,4-dimethyl-8-(piperidin-4-yl)pyrimido[4′,5′:4,5]thieno[2,3-c]pyridazine] | 4300 nM | 33.8% | – | – | – |
| Cc1nnc2sc3c(C4CCN(C(=O)C5CC5)CC4)ncnc3c2c1C [Compound 26, cyclopropyl(4-(3,4-dimethylpyrimido[4′,5′:4,5]thieno[2,3-c]pyridazin-8-yl)piperidin-1-yl)methanone] | 410 nM | 36.5% | – | – | – |
